Experimental data published in patent US20240316213A1, “ANTIBODY-PROTAMINE FUSIONS AS TARGETING COMPOUNDS OF A PROTAMINE-BASED NANOPARTICLE” (Universität Münster, priority 2021, published 2024).

Assays:
HBL-1 cells = experiment: Colony formation assay, HBL-1; format: cell-based
Method: Next, we planned functional assays for identifying the effectivity of the antibody-inhibitor-complexes. DLBCL tumor cells were seeded in methylcellulose to form anchorage-free colony growth as a substitute marker for tumorigenicity. Assays were treated with combinations of antibody-inhibitor complexes and compared with appropriate control groups.
This colony-assay is used for quantification of anchorage-independent clonal cell growth and is a standard in vitro surrogate for tumorigenicity in vivo.

[1] = Cell-free vesicle/nanoparticle formation on chamber slides, microscopy; format: physicochemical
Source text: Based upon these measurements, we hypothesized that the antibody-protamine/free SMCC-protamine/siRNA complexes form outside cells and independently of a cellular context. […]
In detail, the nanostructures resemble a spheroid shape of micrometre size, formed by the three components mAB-SMCC-protamine, unconjugated SMCC-protamine and the Alexa488-labeled siRNA (FIG. 37). The structures are verified by fluorescence microscopy and laser scan confocal microscopy. It became evident that the spheroid structures are completely filled with Alexa488 signals from the siRNA compound.

HBL-1 DLBCL-cells = experiment: NSG-HBL1 xenograft model; format: in vivo; settings: after treatment start, groups of 10 mice
Method: A. Tumor growth and treatment regimen of the NSG-HBL1 xenograft model. After transplantation, tumors were grown to 200 mm^3, before treatment was started twice a week intraperitoneally (i.p.). […] On every treatment day, twice a week, tumor volumes were assessed by caliper measurements. […] C. Survival curves of the treatment versus control groups.

siRNA = experiment: Bandshift (electro-mobility shift) assay, siRNA binding; settings: preparation containing free SMCC-protamine
Method: We analysed the siRNA binding capacity of these different conjugations by our routine bandshift assays (FIG. 40A-F).
The principle of genetic fusion between cell-determining targeting moiety and the electrostatic siRNA binder protamine such as presented in Song et al. was evaluated by applying this strategy to in a variation to target e.g. leukemic blasts (FIG. 48). The well-known anti-CD33 receptor antibody gemtuzumab was expressed with (FIG. 51) and without a direct genetic fusion to protamine as a siRNA carrier.

[2] = Bandshift assay, ibrutinib-Cy3.5 binding; settings: free protamine-SMCC present; listed as Not protamine-SMCC depleted αCD20-mAB-preparations
[3] = Bandshift assay, SM-1/RF binding; settings: free SMCC-protamine present; listed as Not SMCC-protamine depleted CD20-mAB-preparations
Source text: Subsequently, we performed the same experiments for the binding between SM-1/RF and two carrier systems, rituximab (CD20)-protamine and the reliable cetuximab (EGFR)-protamine.

| Compound | colony formation (HBL-1 cells) | nanoparticle/vesicle formation, cell-free ([1]; listed as uncharged ibrutinib) | day by which all/last mice had to be sacrificed (HBL-1 DLBCL-cells) [days] | Microscopic analysis [1] | siRNA bound per mol of antibody carrier (siRNA) [mol] | siRNA bound per mol of antibody carrier (siRNA; listed as Anti-CD20 mAB conjugated to SMCC-protamine) | siRNA bound per mol of antibody carrier (siRNA; listed as rituximab-protamine) | ibrutinib-Cy3.5 complexed per mol of carrier mAB [2] [mol] | SM-1/RF complexed per mol of carrier mAB [3] [mol] |
| --- | --- | --- | --- | --- | --- | --- | --- | --- | --- |
| C=CC(=O)N1CCC[C@@H](n2nc(-c3ccc(Oc4ccccc4)cc3)c3c(N)ncnc32)C1 [ibrutinib, 1-[(3R)-3-[4-amino-3-(4-phenoxyphenyl)pyrazolo[3,4-d]pyrimidin-1-yl]piperidin-1-yl]prop-2-en-1-one] | much lesser degree | not with uncharged ibrutinib | 20 | – | – | – | – | – | – |
| CD20-mAB rituximab-protamine/P conjugates: anti-CD20 antibody rituximab conjugated via sulfo-SMCC to protamine, containing free SMCC-protamine | – | – | – | No visible | 8 | around 16 mol | about 8 mol | > 32 | > 32 |
| rituximab: anti-CD20 antibody | only a mild effect on colony growth | – | ≤ 16 | – | – | – | – | – | – |
